Experimental data: ChEMBL document CHEMBL1143783, “In vitro biotransformations of the prostaglandin D2 (DP) antagonist MK-0524 and synthesis of metabolites” (Bioorg Med Chem Lett, 2007)

System: Plasma
Assay: Stability in rat plasma
Assay type: ADME, cell-free

Stability [%]	SMILES
< 5	CS(=O)(=O)c1cc(F)cc2c3c(n(Cc4ccc(Cl)cc4)c12)[C@@H](CC(=O)O)C[C@@H]3O
< 5	CS(=O)(=O)c1cc(F)cc2c3c(n(Cc4ccc(Cl)cc4)c12)[C@@H](CC(=O)O)C[C@H]3O
